# How the values were obtained:
# TYK2 = TYK2 (Homo sapiens (Human), UniProt P29597); experiment: Tyk2 activity inhibition assay (radioactive kinase / Caliper assay); format: biochemical
# JAK2 = JAK2 (Homo sapiens (Human), UniProt O60674); experiment: JAK2 activity inhibition assay (radioactive kinase / Caliper assay); format: biochemical
# [1] = system: IL-12 induced pSTAT4 (Tyk2-pSTAT4); experiment: IL-12 Induced pSTAT4 in human PBMC; format: cell-based; conditions: IL-12 1.7 ng/mL
# Procedure: IL-12 Induced pSTAT4 in human PBMC. Human PBMC are isolated from buffy coat and are stored frozen for assays as needed. Cells for assay are thawed and resuspended in complete media containing serum, then cells are diluted to 1.67 E6 cells/ml so that 120 μl per well is 200,000 cells. 15 μl of compound or DMSO is added to the well at the desired concentrations and incubated at 1 hr at 37 C. 15 μl of stimulus (final concentration of 1.7 ng/mL IL-12) is added for 30 minutes prior to pSTAT4 and total STAT4 analysis using cell lysates prepared and analyzed by MSD reagents as per manufacturer protocol. The final DMSO concentration of compound in the assay is 0.1%.
# (§1) The compound numbers correspond to the compound numbers in Table 1. Compounds having an activity designated as “A” provided an EC50≤2 μM; compounds having an activity designated as “B” provided a EC50 of 2-20 μM, and compounds having an activity designated as “C” provided an EC50>20 μM.
# [2] = system: GM-CSF induced pSTAT5 (JAK2-pSTAT5); experiment: GM-CSF Induced pSTAT5 in human PBMC; format: cell-based; conditions: GM-CSF 5 ng/mL
# Procedure: GM-CSF Induced pSTAT5 in human PBMC. Cells are prepared for analysis as in the above procedure and 15 μl of GM-CSF (final concentration 5 ng/mL) is added for 20 minutes prior to pSTAT5 and total STAT5 analysis using cell lysates prepared and analyzed by MSD reagents as per manufacturer protocol. The final DMSO concentration of compound in the assay is 0.1%.
# as §1
# Chain of TYK2 (P29597 whole entry): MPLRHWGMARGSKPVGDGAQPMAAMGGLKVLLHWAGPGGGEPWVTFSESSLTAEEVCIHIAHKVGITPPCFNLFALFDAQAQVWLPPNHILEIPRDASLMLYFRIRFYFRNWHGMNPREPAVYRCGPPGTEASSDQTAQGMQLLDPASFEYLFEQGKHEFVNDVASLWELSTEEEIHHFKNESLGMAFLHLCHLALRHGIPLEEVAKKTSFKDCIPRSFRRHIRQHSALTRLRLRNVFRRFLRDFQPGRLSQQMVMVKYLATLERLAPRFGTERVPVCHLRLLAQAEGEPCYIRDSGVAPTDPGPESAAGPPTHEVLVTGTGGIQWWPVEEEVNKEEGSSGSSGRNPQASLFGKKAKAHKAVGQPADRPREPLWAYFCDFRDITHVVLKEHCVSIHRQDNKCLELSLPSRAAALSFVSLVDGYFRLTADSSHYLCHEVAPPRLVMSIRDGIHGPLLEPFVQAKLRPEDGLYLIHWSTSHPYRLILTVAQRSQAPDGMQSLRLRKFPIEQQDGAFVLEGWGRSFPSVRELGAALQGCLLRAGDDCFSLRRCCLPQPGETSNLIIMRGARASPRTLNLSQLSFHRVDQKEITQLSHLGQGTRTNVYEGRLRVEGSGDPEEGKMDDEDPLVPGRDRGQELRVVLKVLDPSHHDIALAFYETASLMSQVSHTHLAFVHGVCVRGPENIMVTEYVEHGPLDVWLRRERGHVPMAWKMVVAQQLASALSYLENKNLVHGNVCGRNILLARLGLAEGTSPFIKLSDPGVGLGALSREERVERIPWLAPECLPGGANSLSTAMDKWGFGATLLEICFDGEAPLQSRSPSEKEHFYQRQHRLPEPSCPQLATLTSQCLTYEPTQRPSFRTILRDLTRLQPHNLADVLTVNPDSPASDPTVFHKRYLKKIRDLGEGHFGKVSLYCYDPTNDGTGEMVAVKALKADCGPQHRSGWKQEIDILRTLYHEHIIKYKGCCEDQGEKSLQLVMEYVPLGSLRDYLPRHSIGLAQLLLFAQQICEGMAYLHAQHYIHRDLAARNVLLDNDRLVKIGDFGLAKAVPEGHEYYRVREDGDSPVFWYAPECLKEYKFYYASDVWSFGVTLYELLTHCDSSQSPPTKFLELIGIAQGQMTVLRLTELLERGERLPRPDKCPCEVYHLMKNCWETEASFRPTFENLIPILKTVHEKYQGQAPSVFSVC
# Chain of JAK2 (O60674 whole entry): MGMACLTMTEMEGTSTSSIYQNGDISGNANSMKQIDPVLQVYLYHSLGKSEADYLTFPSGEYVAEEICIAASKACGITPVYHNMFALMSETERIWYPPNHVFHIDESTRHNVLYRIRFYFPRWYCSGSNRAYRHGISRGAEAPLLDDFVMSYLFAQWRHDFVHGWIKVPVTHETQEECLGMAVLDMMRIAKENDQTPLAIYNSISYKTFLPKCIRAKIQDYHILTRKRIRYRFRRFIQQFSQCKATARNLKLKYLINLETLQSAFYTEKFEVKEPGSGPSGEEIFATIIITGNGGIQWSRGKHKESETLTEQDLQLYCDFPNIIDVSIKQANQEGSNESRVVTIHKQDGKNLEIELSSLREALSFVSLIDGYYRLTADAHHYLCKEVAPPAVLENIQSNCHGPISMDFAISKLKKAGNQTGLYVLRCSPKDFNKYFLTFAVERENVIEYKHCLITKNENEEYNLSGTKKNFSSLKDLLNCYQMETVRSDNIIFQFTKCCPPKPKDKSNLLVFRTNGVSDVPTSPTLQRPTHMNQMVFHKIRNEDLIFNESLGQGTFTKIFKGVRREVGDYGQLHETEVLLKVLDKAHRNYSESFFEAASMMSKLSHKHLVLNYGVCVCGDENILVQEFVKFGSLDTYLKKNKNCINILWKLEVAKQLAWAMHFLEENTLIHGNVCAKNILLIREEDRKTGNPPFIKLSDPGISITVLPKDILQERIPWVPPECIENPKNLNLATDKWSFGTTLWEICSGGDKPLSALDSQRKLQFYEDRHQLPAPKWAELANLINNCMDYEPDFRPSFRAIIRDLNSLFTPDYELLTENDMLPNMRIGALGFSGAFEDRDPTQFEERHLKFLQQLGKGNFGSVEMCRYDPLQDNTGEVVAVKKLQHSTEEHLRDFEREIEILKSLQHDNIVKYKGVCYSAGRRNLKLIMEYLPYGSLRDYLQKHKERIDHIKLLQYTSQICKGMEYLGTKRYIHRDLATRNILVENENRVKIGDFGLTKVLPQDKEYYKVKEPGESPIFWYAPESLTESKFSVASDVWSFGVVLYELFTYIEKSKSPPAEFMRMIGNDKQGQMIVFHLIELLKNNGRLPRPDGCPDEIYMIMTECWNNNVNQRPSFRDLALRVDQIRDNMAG
Structure (SMILES),Ki (TYK2) [nM],Ki (JAK2) [nM],EC50 [1] [nM],EC50 [2] [nM]
"O=C1NCc2nc(-c3c(F)cccc3F)cc(Nc3ccc(N4C[C@H]5COC[C@H]5C4)cn3)c21 [Compound I-59, 2-(2,6-difluorophenyl)-4-((5-((3aR,6aS)-tetrahydro-1H-furo[3,4-c]pyrrol-5(3H)-yl)pyridin-2-yl)amino)-6,7-dihydro-5H-pyrrolo[3,4-b]pyridin-5-one]",≤ 10,10 to 100,≤ 2000,2000 to 20000
"O=C1NCc2nc(-c3c(F)cccc3F)cc(Nc3ccc(N4CCC5(CCOC5)CC4)cn3)c21 [Compound I-52, 4-((5-(2-oxa-8-azaspiro[4.5]decan-8-yl)pyridin-2-yl)amino)-2-(2,6-difluorophenyl)-6,7-dihydro-5H-pyrrolo[3,4-b]pyridin-5-one]",≤ 10,≤ 10,≤ 2000,≤ 2000
"CC1(C)CNc2nc(Nc3cc(-c4c(F)cccc4F)nc4c3C(=O)NC4)ccc21 [Compound I-10, 2-(2,6-difluorophenyl)-4-((3,3-dimethyl-2,3-dihydro-1H-pyrrolo[2,3-b]pyridin-6-yl)amino)-6,7-dihydro-5H-pyrrolo[3,4-b]pyridin-5-one]",≤ 10,10 to 100,≤ 2000,≤ 2000
"N#Cc1cccc(F)c1-c1cc(Nc2ccc(N3CCC4(CC(O)CO4)C3)cn2)c2c(n1)CNC2=O (stereo in doubt) [Compound I-89, 3-fluoro-2-(4-((5-((3S,5R)-3-hydroxy-1-oxa-7-azaspiro[4.4]nonan-7-yl)pyridin-2-yl)amino)-5-oxo-6,7-dihydro-5H-pyrrolo[3,4-b]pyridin-2-yl)benzonitrile]",≤ 10,≤ 10,≤ 2000,≤ 2000
"O=C1NCc2nc(-c3c(F)cccc3F)cc(Nc3ccc(N4CCC5(CCO5)CC4)cn3)c21 [Compound I-25, 4-((5-(1-oxa-7-azaspiro[3.5]nonan-7-yl)pyridin-2-yl)amino)-2-(2,6-difluorophenyl)-6,7-dihydro-5H-pyrrolo[3,4-b]pyridin-5-one]",≤ 10,10 to 100,≤ 2000,2000 to 20000
"O=C1NCc2nc(-c3c(F)cccc3F)cc(Nc3ccc(N4CCC5(CC4)CC5)cn3)c21 [Compound I-20, 4-((5-(6-azaspiro[2.5]octan-6-yl)pyridin-2-yl)amino)-2-(2,6-difluorophenyl)-6,7-dihydro-5H-pyrrolo[3,4-b]pyridin-5-one]",≤ 10,10 to 100,≤ 2000,> 20000
"O=C1NCc2nc(-c3c(F)cccc3F)cc(Nc3ccc4c(n3)NCCCO4)c21 [Compound I-18, 2-(2,6-difluorophenyl)-4-((2,3,4,5-tetrahydropyrido[3,2-b][1,4]oxazepin-7-yl)amino)-6,7-dihydro-5H-pyrrolo[3,4-b]pyridin-5-one]",≤ 10,10 to 100,≤ 2000,2000 to 20000
"O=C1NCc2nc(-c3c(F)cccc3F)cc(Nc3ccc(N4C[C@H]5CC[C@@H](C4)O5)cn3)c21 [Compound I-4, 4-((5-((1R,5S)-8-oxa-3-azabicyclo[3.2.1]octan-3-yl)pyridin-2-yl)amino)-2-(2,6-difluorophenyl)-6,7-dihydro-5H-pyrrolo[3,4-b]pyridin-5-one]",≤ 10,10 to 100,≤ 2000,≤ 2000
"CC1(C)CNc2cc(Nc3nc(-c4c(F)cccc4F)nc4c3C(=O)NC4)ccc21 [Compound I-2, 2-(2,6-difluorophenyl)-4-((3,3-dimethylindolin-6-yl)amino)-6,7-dihydro-5H-pyrrolo[3,4-d]pyrimidin-5-one]",≤ 10,10 to 100,≤ 2000,2000 to 20000
"O=C1NCc2nc(-c3c(F)cccc3F)cc(Nc3cc4c(cn3)CCN4)c21 [Compound I-17, 2-(2,6-difluorophenyl)-4-((2,3-dihydro-1H-pyrrolo[3,2-c]pyridin-6-yl)amino)-6,7-dihydro-5H-pyrrolo[3,4-b]pyridin-5-one]",≤ 10,10 to 100,≤ 2000,2000 to 20000
"CCNC(=O)[C@@](C)(O)c1ccc(Nc2nc(-c3c(F)cccc3F)nc3c2C(=O)NC3)cc1 [Compound I-15, (S)-2-(4-((2-(2,6-difluorophenyl)-5-oxo-6,7-dihydro-5H-pyrrolo[3,4-d]pyrimidin-4-yl)amino)phenyl)-N-ethyl-2-hydroxypropanamide]",≤ 10,10 to 100,≤ 2000,2000 to 20000
"CCNC(=O)C(C)(C)c1ccc(Nc2cc(-c3c(F)cccc3F)nc3c2C(=O)NC3)cc1 [Compound I-67, 2-(4-((2-(2,6-difluorophenyl)-5-oxo-6,7-dihydro-5H-pyrrolo[3,4-b]pyridin-4-yl)amino)phenyl)-N-ethyl-2-methylpropanamide]",≤ 10,≤ 10,≤ 2000,2000 to 20000
"N#Cc1cc(F)c(-c2cc(Nc3ccc(N4CCC5(CC4)CC5)cn3)c3c(n2)CNC3=O)c(F)c1 [Compound I-60, 4-(4-((5-(6-azaspiro[2.5]octan-6-yl)pyridin-2-yl)amino)-5-oxo-6,7-dihydro-5H-pyrrolo[3,4-b]pyridin-2-yl)-3,5-difluorobenzonitrile]",≤ 10,10 to 100,≤ 2000,2000 to 20000
"N#Cc1cccc(F)c1-c1cc(Nc2ccc(N3CCOC4(CC4)C3)nc2)c2c(n1)CNC2=O [Compound I-79, 2-(4-((6-(4-oxa-7-azaspiro[2.5]octan-7-yl)pyridin-3-yl)amino)-5-oxo-6,7-dihydro-5H-pyrrolo[3,4-b]pyridin-2-yl)-3-fluorobenzonitrile]",≤ 10,10 to 100,≤ 2000,2000 to 20000
"O=C1NCc2nc(-c3c(F)cccc3F)cc(Nc3ccc(N4CCCC5(CCO5)C4)cn3)c21 (centres unmarked) [Compound I-36, 4-((5-(1-oxa-6-azaspiro[3.5]nonan-6-yl)pyridin-2-yl)amino)-2-(2,6-difluorophenyl)-6,7-dihydro-5H-pyrrolo[3,4-b]pyridin-5-one]",≤ 10,10 to 100,≤ 2000,2000 to 20000
"N#Cc1cccc(F)c1-c1cc(Nc2ccc(N3CC[C@@]4(C[C@@H](O)CO4)C3)cn2)c2c(n1)CNC2=O [Compound I-88, 3-fluoro-2-(4-((5-((3R,5R)-3-hydroxy-1-oxa-7-azaspiro[4.4]nonan-7-yl)pyridin-2-yl)amino)-5-oxo-6,7-dihydro-5H-pyrrolo[3,4-b]pyridin-2-yl)benzonitrile]",≤ 10,≤ 10,≤ 2000,≤ 2000
"N#Cc1cccc(F)c1-c1cc(Nc2ccc(N3CCC4(C[C@H](O)CO4)C3)cn2)c2c(n1)CNC2=O (stereo in doubt) [Compound I-91, 3-fluoro-2-(4-((5-((3S,5S)-3-hydroxy-1-oxa-7-azaspiro[4.4]nonan-7-yl)pyridin-2-yl)amino)-5-oxo-6,7-dihydro-5H-pyrrolo[3,4-b]pyridin-2-yl)benzonitrile]",≤ 10,≤ 10,≤ 2000,≤ 2000
